{"source": "patent US20250367166A1", "about": "“NEXT GENERATION DIPROVOCIMS THAT ACTIVATE THE INNATE AND ADAPTIVE IMMUNE RESPONSE” (The Scripps Research Institute, priority 2022, published 2025)", "key": {"B16-OVA melanoma [1]": {"system": "B16-OVA melanoma", "conditions": "background; diprovocim/OVA i.m.; cited from earlier work"}, "[2]": {"system": "SIINFEKL-loaded C57BL/6J splenocytes", "test": "In vivo CTL assay after i.m. immunization with OVA plus diprovocim", "design": "species or system C57BL/6J mice", "conditions": "200 μg diprovocim + 100 μg OVA, 9 days after initial immunization and 9 days after boost", "description": "(§1) Mice were injected i.m. on day 0 and day 28 (FIG. 1) with 100 μg OVA alone, or 100 μg OVA mixed with vehicle (DMSO:Tween 80:saline=1:1:8), or mixed with 200 μg diprovocim-1 (TNF-α 1) or diprovocim-X (TNF-α 35) per mouse. EndoFit ovalbumin (OVA) with >98% purity minimum (SDS-PAGE) and endotoxin levels <1 EU/mg was purchased from Invivogen.\nOn day 9 and day 37 (FIG. 1), naive C57BL/6J mice were killed, and splenocytes were collected. […] The unpulsed and peptide-pulsed cells were labeled, respectively, with […] (“low”) or […] (“high”) CellTrace Violet (Invitrogen) in serum-free medium for 20 min. Equal numbers (2×10^6) of CellTrace Violet^high (OVA pulsed) and CellTrace Violet^low (unpulsed) cells were mixed together and injected intravenously into the immunized mice.\nAfter 48 h, blood from treated mice was collected and subjected to flow cytometry analysis. The numbers of remaining live CellTrace Violet^high and CellTrace Violet^low cells were determined and used to calculate the percentage of OVA peptide-pulsed target cells killed. Specific killing was defined as the ratio=CellTrace Violet^low cells/CellTrace Violet^high cells. The percentage of target cell lysis=[1−unimmunized ratio/immunized ratio]×100."}, "TLR1/TLR2 [3]": {"molecular_target": "T1, TLR1/TLR2 (Homo sapiens, UniProt O60603+Q15399)", "T1 sequence (Q15399 25-786)": "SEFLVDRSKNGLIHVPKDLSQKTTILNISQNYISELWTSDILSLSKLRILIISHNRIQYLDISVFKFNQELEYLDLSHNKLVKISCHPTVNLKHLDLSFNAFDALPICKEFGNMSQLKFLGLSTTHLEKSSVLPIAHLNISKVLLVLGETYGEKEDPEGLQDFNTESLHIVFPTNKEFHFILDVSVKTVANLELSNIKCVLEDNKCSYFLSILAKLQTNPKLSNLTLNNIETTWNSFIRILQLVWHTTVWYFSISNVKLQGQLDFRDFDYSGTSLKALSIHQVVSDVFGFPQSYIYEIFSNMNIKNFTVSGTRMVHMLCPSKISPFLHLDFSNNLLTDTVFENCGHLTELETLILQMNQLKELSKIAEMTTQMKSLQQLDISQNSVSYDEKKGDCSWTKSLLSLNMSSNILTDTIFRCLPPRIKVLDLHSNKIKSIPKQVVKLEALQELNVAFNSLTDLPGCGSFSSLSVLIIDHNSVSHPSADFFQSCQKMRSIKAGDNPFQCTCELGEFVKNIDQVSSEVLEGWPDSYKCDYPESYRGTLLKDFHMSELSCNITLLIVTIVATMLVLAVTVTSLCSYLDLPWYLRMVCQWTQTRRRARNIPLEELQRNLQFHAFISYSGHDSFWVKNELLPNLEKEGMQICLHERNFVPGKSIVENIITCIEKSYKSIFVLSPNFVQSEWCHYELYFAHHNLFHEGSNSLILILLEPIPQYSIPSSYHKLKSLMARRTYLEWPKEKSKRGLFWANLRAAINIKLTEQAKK", "T1 sequence (O60603 21-784)": "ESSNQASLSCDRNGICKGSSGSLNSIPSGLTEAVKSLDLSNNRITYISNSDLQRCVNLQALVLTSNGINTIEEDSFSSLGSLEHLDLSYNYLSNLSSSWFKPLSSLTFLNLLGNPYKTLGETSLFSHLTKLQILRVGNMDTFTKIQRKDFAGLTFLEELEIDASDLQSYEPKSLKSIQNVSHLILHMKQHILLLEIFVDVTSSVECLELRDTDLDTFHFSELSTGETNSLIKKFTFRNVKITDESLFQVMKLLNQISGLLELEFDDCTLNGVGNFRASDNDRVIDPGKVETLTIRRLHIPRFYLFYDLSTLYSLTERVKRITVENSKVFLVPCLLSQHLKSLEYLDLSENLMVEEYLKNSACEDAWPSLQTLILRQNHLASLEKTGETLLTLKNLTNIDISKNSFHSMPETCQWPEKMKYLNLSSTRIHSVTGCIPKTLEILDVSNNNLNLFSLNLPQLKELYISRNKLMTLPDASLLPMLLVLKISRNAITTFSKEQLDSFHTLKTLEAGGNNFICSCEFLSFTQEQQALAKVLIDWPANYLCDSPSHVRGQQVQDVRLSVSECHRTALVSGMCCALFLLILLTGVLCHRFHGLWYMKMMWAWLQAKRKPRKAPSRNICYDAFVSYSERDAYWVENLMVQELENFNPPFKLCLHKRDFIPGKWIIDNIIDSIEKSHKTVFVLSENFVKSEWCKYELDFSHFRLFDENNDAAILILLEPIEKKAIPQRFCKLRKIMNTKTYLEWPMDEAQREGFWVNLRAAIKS", "conditions": "table of b113, in parentheses; cited from earlier work"}, "B16-OVA melanoma [4]": {"system": "B16-OVA melanoma", "test": "Tumor growth assay, B16-OVA melanoma in immunized mice", "assay_type": "in vivo, C57BL/6J mice", "conditions": "inoculation 10 days after the second challenge; anti-mPD-L1 i.p.", "description": "as §1\nB16-OVA cells (B16F10 melanoma cells stably expressing chicken ovalbumin) were grown in DMEM containing 10% vol/vol FBS. On day 38 (FIG. 1), a total of 2×10^5 B16-OVA cells in 100 μL PBS were injected s.c. into the right flank of 17 week-old male C57BL/6J mice to establish tumors. On days 41, 44, and 47, the mice were injected i.p. with 200 μg checkpoint inhibitor (anti-mPD-L1, BioXcell) in 100 μL saline. Tumors were measured with a digital caliper (Fisher) and the tumor sizes were calculated using the following formula: volume=0.5×length×width^2. Mice were sacrificed when the tumor length or width reached 2 cm."}, "[5]": {"test": "In vivo adjuvant activity, i.m. co-administration with ovalbumin", "conditions": "for adjuvant activity in mice (CD4- and CD-8-dependent responses): with OVA, i.m.", "description": "C57BL/6J mice were purchased from The Jackson Laboratory. All study procedures using mice were approved by the Institutional Animal Care and Use Committee (IACUC) of the University of Texas Southwestern Medical Center and were conducted in accordance with institutionally approved protocols and guidelines for animal care and use. All the mice were maintained at the University of Texas Southwestern Medical Center in accordance with institutionally approved protocols.\nEndoFit ovalbumin (OVA) with >98% purity minimum (SDS-PAGE) and endotoxin levels <1 EU/mg was purchased from Invivogen."}, "TLR1/TLR2 [6]": {"molecular_target": "T2, TLR1/TLR2 (Mus musculus, UniProt Q9EPQ1+Q9QUN7)", "T2 sequence (Q9EPQ1 26-795)": "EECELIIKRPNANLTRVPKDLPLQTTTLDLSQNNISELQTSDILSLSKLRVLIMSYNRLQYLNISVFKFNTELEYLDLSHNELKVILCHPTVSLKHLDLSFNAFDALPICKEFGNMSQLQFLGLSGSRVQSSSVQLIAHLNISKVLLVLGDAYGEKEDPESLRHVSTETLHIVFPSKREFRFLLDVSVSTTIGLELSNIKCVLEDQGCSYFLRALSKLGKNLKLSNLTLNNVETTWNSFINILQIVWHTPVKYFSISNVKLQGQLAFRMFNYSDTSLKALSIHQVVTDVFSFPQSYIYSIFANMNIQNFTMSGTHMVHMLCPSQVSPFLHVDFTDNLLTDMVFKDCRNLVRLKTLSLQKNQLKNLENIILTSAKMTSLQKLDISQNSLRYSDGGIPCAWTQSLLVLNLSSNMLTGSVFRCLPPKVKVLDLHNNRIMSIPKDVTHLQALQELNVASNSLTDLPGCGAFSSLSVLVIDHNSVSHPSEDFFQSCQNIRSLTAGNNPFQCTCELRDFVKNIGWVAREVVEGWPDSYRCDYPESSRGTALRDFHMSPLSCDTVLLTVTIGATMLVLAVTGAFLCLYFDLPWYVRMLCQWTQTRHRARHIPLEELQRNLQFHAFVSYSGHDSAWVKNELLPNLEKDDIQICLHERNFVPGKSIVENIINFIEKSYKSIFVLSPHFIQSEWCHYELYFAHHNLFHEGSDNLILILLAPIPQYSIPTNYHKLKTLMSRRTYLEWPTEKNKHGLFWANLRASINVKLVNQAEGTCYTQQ", "T2 sequence (Q9QUN7 25-784)": "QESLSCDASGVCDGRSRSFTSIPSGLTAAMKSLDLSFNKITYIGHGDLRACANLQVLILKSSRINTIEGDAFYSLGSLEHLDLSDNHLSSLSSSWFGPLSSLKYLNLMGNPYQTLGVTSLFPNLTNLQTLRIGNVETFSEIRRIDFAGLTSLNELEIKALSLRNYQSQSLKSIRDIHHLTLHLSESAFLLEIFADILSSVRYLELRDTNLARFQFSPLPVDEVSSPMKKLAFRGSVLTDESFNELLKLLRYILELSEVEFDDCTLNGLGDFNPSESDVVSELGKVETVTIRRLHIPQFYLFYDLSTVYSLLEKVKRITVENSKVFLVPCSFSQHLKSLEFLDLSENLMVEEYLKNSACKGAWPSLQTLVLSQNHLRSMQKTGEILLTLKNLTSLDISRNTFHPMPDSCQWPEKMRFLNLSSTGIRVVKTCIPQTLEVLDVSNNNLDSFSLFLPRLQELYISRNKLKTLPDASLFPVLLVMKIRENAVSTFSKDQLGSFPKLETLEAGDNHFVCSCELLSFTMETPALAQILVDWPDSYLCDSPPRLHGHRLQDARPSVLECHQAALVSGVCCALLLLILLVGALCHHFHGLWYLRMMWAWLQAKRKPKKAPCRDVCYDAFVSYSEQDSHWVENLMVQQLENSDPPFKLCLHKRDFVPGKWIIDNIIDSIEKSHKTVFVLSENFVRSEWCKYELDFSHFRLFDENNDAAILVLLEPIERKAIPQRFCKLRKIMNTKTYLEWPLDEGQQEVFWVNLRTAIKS", "conditions": "cited from earlier work"}, "[7]": {"conditions": "background; cited from earlier work"}, "[8]": {"system": "OVA-specific IgG, IgG1, or IgG2b", "test": "Antibody response assay: serum OVA-specific IgG, IgG1, IgG2b by ELISA", "assay_type": "in vivo, C57BL/6J mice", "conditions": "14 days after a single immunization, with OVA", "description": "as §1\nOn day 14 (FIG. 1), serum titers of OVA-specific IgG, IgG1, or IgG2b (SouthernBiotech) were measured by ELISA. Nunc MaxiSorp flat-bottom 96-well microplates (Thermo Fisher Scientific) were coated with 5 μg/mL soluble OVA (Invivogen) and incubated at 4° C. overnight (ca. 18 h). Plates were washed four times with washing buffer (0.05% [vol/vol] Tween-20 in PBS), then blocked with 1% (vol/vol) BSA in PBS for 1 h at room temperature. Serum samples diluted in 1% (vol/vol) BSA were added to the prepared plates and incubated for 2 h. The plates were washed eight times with washing buffer and then incubated with HRP-conjugated goat anti-mouse IgG, IgG1, or IgG2b for 1 h at room temperature. Plates were washed eight times with washing buffer, then developed with SureBlue TMB Microwell Peroxidase Substrate and TMB Stop Solution (KPL). Absorbance was measured at 450 nm on a Synergy Neo2 Plate Reader (BioTek)."}, "TLR1/TLR2 [9]": {"molecular_target": "T1, TLR1/TLR2", "test": "TNF-α release from PMA-differentiated human THP-1 cells (ELISA)", "procedure": "THP-1 (American Type Culture Collection) cells, a human monocytic leukemia cell line, were differentiated by treatment with 100 nM PMA (Sigma) in Roswell Park Memorial Institute (RPMI) cell culture medium [RPMI containing 10% vol/vol FBS (Gemini Bio Products), 1% penicillin and streptomycin (Life Technologies)] for 24 h. After that, the cells were washed with PBS and cultured in fresh RPMI cell culture medium for 24 h before use in studies. PMA-differentiated THP-1 cells were seeded onto 96-well plates at 0.5×10^5 cells per well and treated with systematically varied concentrations of the candidate compounds (dissolved in DMSO, and the final assay DMSO concentration (0.1%) was kept constant in all experiments) for 4 h. Ultra-pure LPS (dissolved in H2O, Enzo Life Sciences) was assessed alongside the compounds as a positive control and DMSO treated control was used as a negative control. Human TNF-α in the supernatants was measured by ELISA (eBioscience). This assay was used for establishing dose-response curves and measured EC50's. EC50's were calculated by Graphpad Prism. All data is the mean of duplicates and SD is within +10% of mean."}, "TLR1/TLR2 [10]": {"molecular_target": "T2, TLR1/TLR2", "test": "TNF-α release from thioglycolate-elicited mouse peritoneal macrophages (ELISA)"}}, "note": "Where two headings read alike, the source gives them in different places.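 Wherever efficacy relative to that of diprovocim-1 in human THP-1 cells is given: cells exposed to graded compound concentrations for 4 h, TNF-α quantified in supernatant, LPS as positive and DMSO as negative control, values are duplicate means.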", "data": [{"molecule": "O=C(N[C@H]1C[C@@H]1c1ccccc1)[C@@H]1CN(C(=O)c2ccc(C(=O)N3C[C@@H](C(=O)N[C@H]4C[C@@H]4c4ccccc4)[C@H](C(=O)N[C@H]4C[C@@H]4c4ccccc4)C3)cc2)C[C@H]1C(=O)N[C@H]1C[C@@H]1c1ccccc1", "note": "[Compound 1, reference compound]", "values": [{"measurement": "effect of combination with anti-PD-L1 on B16-OVA tumors in mice", "setting": "B16-OVA melanoma [1]", "value": "eradicated tumors"}, {"measurement": "in vivo cytotoxicity against OVA peptide-loaded C57BL/6J splenocytes (CTL, FIG. 2A)", "setting": "[2]", "value": "induced strong in vivo cytotoxicity"}, {"measurement": "Efficacy (magnitude) of response versus diprovocim-1 (100%), THP-1", "setting": "TLR1/TLR2 [3]", "value": 100, "unit": "%"}, {"measurement": "Resistance to B16-OVA melanoma (FIG. 2B)", "setting": "B16-OVA melanoma [4]", "value": "notably enhanced"}, {"measurement": "overt toxicity when used as an adjuvant", "setting": "[5]; compared with LPS administration", "value": "did not display the overt toxicity"}, {"measurement": "adjuvant activity in mice (CD4- and CD-8-dependent responses)", "setting": "[5]", "value": "comparable adjuvant activity"}, {"measurement": "Efficacy (magnitude) of response versus diprovocim-1 (100%), mouse macrophages", "setting": "TLR1/TLR2 [6]; table of b113, in parentheses", "value": 100, "unit": "%"}, {"measurement": "adjuvant activity in mice when co-administered i.m. with ovalbumin", "setting": "[7]", "value": "effective adjuvant"}, {"measurement": "OVA-specific circulating antibodies of different subtypes by ELISA (FIGS. 3A-3C)", "setting": "[8]", "value": "strong responses"}]}, {"molecule": "O=C(O)[C@@H]1CN(C(=O)c2ccc(C(=O)N3C[C@@H](C(=O)N[C@H]4C[C@@H]4c4ccccc4)[C@H](C(=O)N[C@H]4C[C@@H]4c4ccccc4)C3)cc2)C[C@H]1C(=O)N[C@H]1C[C@@H]1c1ccccc1", "note": "[Compound 2]", "values": [{"measurement": "Efficacy (magnitude) of response versus diprovocim-1 (100%), THP-1", "setting": "TLR1/TLR2 [3]", "value": 110, "unit": "%"}, {"measurement": "EC50", "setting": "TLR1/TLR2 [6]; table of b113, prior observation ref 15, read-out: EC50 (nM) (mouse): EC50 TNF-α release from mouse macrophages", "value": "> 5000", "unit": "nM"}]}, {"molecule": "CC(C)(C)OC(=O)NCC(=O)OCCCCCCCCCCCCNC(=O)[C@@H]1CN(C(=O)c2ccc(C(=O)N3C[C@@H](C(=O)N[C@H]4C[C@@H]4c4ccccc4)[C@H](C(=O)N[C@H]4C[C@@H]4c4ccccc4)C3)cc2)C[C@H]1C(=O)N[C@H]1C[C@@H]1c1ccccc1", "note": "[Compound 35, 12-((3S,4S)-1-(4-((3S,4S)-3,4-Bis(((1S,2R)-2-phenylcyclopropyl)carbamoyl)-pyrrolidine-1-carbonyl)benzoyl)-4-(((1S,2R)-2-phenyl-cyclopropyl)carbamoyl)-pyrrolidine-3-carboxamido)-dodecyl-2-((tert-butoxycarbonyl)-amino)acetate]", "values": [{"measurement": "efficacy relative to that of diprovocim-1 in human THP-1 cells", "setting": "TLR1/TLR2 [9]", "value": 100, "unit": "%"}, {"measurement": "Efficacy (magnitude) of response versus diprovocim-1 (100%), THP-1", "setting": "TLR1/TLR2 [9]; Table 3, in parentheses", "value": 100, "unit": "%"}, {"measurement": "Efficacy (magnitude) of response versus diprovocim-1 (100%), THP-1", "setting": "TLR1/TLR2 [9]; Table 5, in parentheses", "value": 100, "unit": "%"}, {"measurement": "Efficacy (magnitude) of response versus diprovocim-1 (100%), THP-1", "setting": "TLR1/TLR2 [9]; Table 6, in parentheses", "value": 100, "unit": "%"}, {"measurement": "EC50", "setting": "TLR1/TLR2 [9]; read-out: EC50 (nM) (THP-1): EC50 TNF-α release from human THP-1 cells, Table 3", "value": 0.14, "unit": "nM"}, {"measurement": "EC50", "setting": "TLR1/TLR2 [9]; read-out: EC50 (nM) (THP-1): EC50 TNF-α release from human THP-1 cells, Table 5", "value": 0.14, "unit": "nM"}, {"measurement": "EC50", "setting": "TLR1/TLR2 [9]; read-out: EC50 (nM) (THP-1): EC50 TNF-α release from human THP-1 cells, Table 6", "value": 0.14, "unit": "nM"}, {"measurement": "EC50", "setting": "TLR1/TLR2 [9]; read-out: EC50 in human THP-1 cells", "value": 0.14, "unit": "nM"}, {"measurement": "in vivo cytotoxicity against OVA peptide-loaded C57BL/6J splenocytes (CTL, FIG. 2A)", "setting": "[2]", "value": "induced strong in vivo cytotoxicity"}, {"measurement": "Resistance to B16-OVA melanoma (FIG. 2B)", "setting": "B16-OVA melanoma [4]", "value": "notably enhanced"}, {"measurement": "adjuvant activity in mice (CD4- and CD-8-dependent responses)", "setting": "[5]", "value": "matching or surpassing the activity of diprovocim-1"}, {"measurement": "OVA-specific circulating antibodies of different subtypes by ELISA (FIGS. 3A-3C)", "setting": "[8]", "value": "strong responses"}, {"measurement": "efficacy relative to that of diprovocim-1 in mouse macrophages", "setting": "TLR1/TLR2 [10]", "value": 550, "unit": "%"}, {"measurement": "fold more active than diprovocim-1 in mouse macrophages", "setting": "TLR1/TLR2 [10]", "value": 2, "unit": "fold"}, {"measurement": "Efficacy (magnitude) of response versus diprovocim-1 (100%), mouse macrophages", "setting": "TLR1/TLR2 [10]; Table 3, in parentheses", "value": 550, "unit": "%"}, {"measurement": "Efficacy (magnitude) of response versus diprovocim-1 (100%), mouse macrophages", "setting": "TLR1/TLR2 [10]; Table 5, in parentheses", "value": 550, "unit": "%"}, {"measurement": "Efficacy (magnitude) of response versus diprovocim-1 (100%), mouse macrophages", "setting": "TLR1/TLR2 [10]; Table 6, in parentheses", "value": 550, "unit": "%"}, {"measurement": "EC50", "setting": "TLR1/TLR2 [10]; read-out: EC50 (nM) (mouse): EC50 TNF-α release from mouse macrophages, Table 3", "value": 0.75, "unit": "nM"}, {"measurement": "EC50", "setting": "TLR1/TLR2 [10]; read-out: EC50 (nM) (mouse): EC50 TNF-α release from mouse macrophages, Table 5", "value": 0.75, "unit": "nM"}, {"measurement": "EC50", "setting": "TLR1/TLR2 [10]; read-out: EC50 (nM) (mouse): EC50 TNF-α release from mouse macrophages, Table 6", "value": 0.75, "unit": "nM"}, {"measurement": "EC50", "setting": "TLR1/TLR2 [10]; read-out: EC50 in mouse macrophages", "value": 0.75, "unit": "nM"}]}]}
